According to patent US11254652B2, “Crystalline forms of N-(4-(4-(cyclopropymethyl)piperazine-1-carbonyl)phenyl)quinoline-8-sulfonamide” (Agios Pharmaceuticals, Inc., priority 2017, dated 2022):
Read-outs that look alike come from different tables or passages of the source.

Experiment: Solubility measurements by gravimetric method in solvents at 23° C. and 50° C.
Type: physicochemical
Settings: for solubility at 2 days: thermodynamic from solid
Protocol: Solubility measurements were done by gravimetric method in 20 different solvents at two temperatures (23° C. and 50° C.). About 20-30 mg of Form A, the synthesis of which is described below, was weighed and 0.75 mL solvent was added to form a slurry. The slurry was then stirred for two days at the specified temperature. The vial was centrifuged and the supernatant was collected for solubility measurement through gravimetric method. The saturated supernatant was transferred into pre-weighed 2 mL HPLC vials and weighed again (vial+liquid). The uncapped vial was then left on a 50° C. hot plate to slowly evaporate the solvent overnight. The vials were then left in the oven at 50° C. and under vacuum to remove the residual solvent so that only the dissolved solid remained. The vial was then weighed (vial+solid). From these three weights; vial, vial+liquid and vial+solid; the weight of dissolved solid and the solvent were calculated. Then using solvent density the solubility was calculated as mg solid/mL of solvent.
20-30 mg of Form A was weighed into 2 mL vial and 500 μL MeOH solvent system as outlined in the table was added. If dissolved, more solids were added to form the slurry. The slurries were then stirred for two days. The vials were centrifuged and the supernatant was collected for solubility measurement through gravimetric method by evaporation at 50° C. XRPD analysis was conducted on the solid after filtration of the slurries.
For the sake of comparison, the solubility of Compound 1, i.e., the non-crystalline freebase, was also measured in two solvent systems to see the effect of water.

For `O=C(c1ccc(NS(=O)(=O)c2cccc3cccnc23)cc1)N1CCN(CC2CC2)CC1` [Form A, 1-(cyclopropylmethyl)-4-(4-(quinoline-8-sulfonamido)benzoyl)piperazin-1-ium hemisulfate sesquihydrate], the solubility at 2 days (MEK:water (20:1), 50 °C, organic solvent or mixture, MEK:water (20:1), 50° C., read-out: Solubility) was 2000 µg/mL, the solubility at 2 days (MeOAc:MeOH (1:1) and 1 vol % water, 23 °C, organic solvent or mixture, MeOAc:MeOH (1:1) and 1 vol % water, 23° C., read-out: Solubility) was 118000 µg/mL and the solubility at 2 days (MeOAc:MeOH (1:1) and 1 vol % water, 50 °C, organic solvent or mixture, MeOAc:MeOH (1:1) and 1 vol % water, 50° C., read-out: Solubility) was 236000 µg/mL. The solubility at 2 days (MeOAc:MeOH (1:1) and 2.5 vol % water, 23 °C, organic solvent or mixture, MeOAc:MeOH (1:1) and 2.5 vol % water, 23° C., read-out: Solubility) was 39000 µg/mL, the solubility at 2 days (MeOAc:MeOH (1:1) and 2.5 vol % water, 50 °C, organic solvent or mixture, MeOAc:MeOH (1:1) and 2.5 vol % water, 50° C., read-out: Solubility) was 143000 µg/mL and the solubility at 2 days (MeOAc:MeOH (1:1) and 5 vol % water, 23 °C, organic solvent or mixture, MeOAc:MeOH (1:1) and 5 vol % water, 23° C., read-out: Solubility) was 5000 µg/mL. For the same molecule, the solubility at 2 days (MeOAc:MeOH (1:1) and 5 vol % water, 50 °C, organic solvent or mixture, MeOAc:MeOH (1:1) and 5 vol % water, 50° C., read-out: Solubility) was 26000 µg/mL, the solubility at 2 days (MeOAc:MeOH (1:1), 23 °C, organic solvent or mixture, MeOAc:MeOH (1:1), 23° C., read-out: Solubility) was 208000 µg/mL and the solubility at 2 days (MeOAc:MeOH (1:1), 50 °C, organic solvent or mixture, MeOAc:MeOH (1:1), 50° C., read-out: Solubility) was 340000 µg/mL. For the same molecule, the solubility at 2 days (MeOH, 23 °C, organic solvent or mixture, MeOH, 23° C., 2 days slurry, read-out: Solubility) was 393000 µg/mL, the solubility at 2 days (MeOH, 50 °C, organic solvent or mixture, MeOH, 50° C., 2 days slurry, read-out: Solubility) was > 765000 µg/mL and the solubility at 2 days (MeOH:Water (1:1), 23 °C, aqueous with cosolvent or surfactant or cyclodextrin, MeOH:Water (1:1), 23° C., read-out: Solubility) was 7000 µg/mL. For the same molecule, the solubility at 2 days (MeOH:Water (1:1), 50 °C, aqueous with cosolvent or surfactant or cyclodextrin, MeOH:Water (1:1), 50° C., read-out: Solubility) was 27000 µg/mL, the solubility at 2 days (MeOH:water (1:1) system as printed, 0 vol % water, organic solvent or mixture, MeOH:water (1:1) system as printed, 0 vol % water, read-out: room temperature solubility) was 208000 µg/mL and the solubility at 2 days (MeOH:water (1:1) system as printed, 1% water, organic solvent or mixture, MeOH:water (1:1) system as printed, 1% water, read-out: room temperature solubility) was 118000 µg/mL. The solubility at 2 days (MeOH:water (1:1) system as printed, 2.5% water, organic solvent or mixture, MeOH:water (1:1) system as printed, 2.5% water, read-out: room temperature solubility) was 39000 µg/mL, the solubility at 2 days (MeOH:water (1:1) system as printed, 5% water, organic solvent or mixture, MeOH:water (1:1) system as printed, 5% water, read-out: room temperature solubility) was 5000 µg/mL and the solubility at 2 days (MeOH:water (8:2), 23 °C, organic solvent or mixture, MeOH:water (8:2), 23° C., read-out: Solubility) was 10000 µg/mL. For the same molecule, the solubility at 2 days (MeOH:water (8:2), 50 °C, organic solvent or mixture, MeOH:water (8:2), 50° C., read-out: Solubility) was 59000 µg/mL, the solubility at 2 days (MtBE, 23 °C, organic solvent or mixture, MtBE, 23° C., read-out: Solubility) was 1000 µg/mL and the solubility at 2 days (MtBE, 50 °C, organic solvent or mixture, MtBE, 50° C., read-out: Solubility) was 3000 µg/mL. For the same molecule, the solubility at 2 days (THF, 23 °C, organic solvent or mixture, THF, 23° C., read-out: Solubility) was 2000 µg/mL, the solubility at 2 days (THF, 50 °C, organic solvent or mixture, THF, 50° C., read-out: Solubility) was 26000 µg/mL and the solubility at 2 days (THF:water (8:2), 23 °C, organic solvent or mixture, THF:water (8:2), 23° C., read-out: Solubility) was 14000 µg/mL. For the same molecule, the solubility at 2 days (THF:water (8:2), 50 °C, organic solvent or mixture, THF:water (8:2), 50° C., read-out: Solubility) was 77000 µg/mL, the Solubility (Toluene, 23° C.) was 0 mg solid/mL solvent and the solubility at 2 days (Toluene:EtOH:water (10:5:0.5), 23 °C, organic solvent or mixture, Toluene:EtOH:water (10:5:0.5), 23° C., read-out: Solubility) was 1000 µg/mL. For the same molecule, the solubility at 2 days (Toluene:EtOH:water (10:5:0.5), 50 °C, organic solvent or mixture, Toluene:EtOH:water (10:5:0.5), 50° C., read-out: Solubility) was 4000 µg/mL, the solubility at 2 days (acetone, 23 °C, organic solvent or mixture, Acetone, 23° C., read-out: Solubility) was 1000 µg/mL and the solubility at 2 days (acetone, 50 °C, organic solvent or mixture, Acetone, 50° C., read-out: Solubility) was 6000 µg/mL. For the same molecule, the solubility at 2 days (acetone:water (8:2), 23 °C, organic solvent or mixture, acetone:water (8:2), 23° C., read-out: Solubility) was 5000 µg/mL, the solubility at 2 days (acetone:water (8:2), 50 °C, organic solvent or mixture, acetone:water (8:2), 50° C., read-out: Solubility) was 16000 µg/mL and the solubility at 2 days (acetonitrile, 23 °C, organic solvent or mixture, Acetonitrile, 23° C., read-out: Solubility) was 4000 µg/mL. For the same molecule, the solubility at 2 days (acetonitrile, 50 °C, organic solvent or mixture, Acetonitrile, 50° C., read-out: Solubility) was 6000 µg/mL, the solubility at 2 days (cyclohexane, 23 °C, organic solvent or mixture, Cyclohexane, 23° C., read-out: Solubility) was 1000 µg/mL and the solubility at 2 days (cyclohexane, 50 °C, organic solvent or mixture, Cyclohexane, 50° C., read-out: Solubility) was 1000 µg/mL. For the same molecule, the “decrease of solubility on adding 5 vol % water” value (room temperature, 0 vs 5 vol % water) was 42 fold and the solubility at 2 days (toluene, 50 °C, organic solvent or mixture, Toluene, 50° C., read-out: Solubility) was 2000 µg/mL.
